As usually defined, the Km is the substrate concentration at which the rate is half of its maximum. As a reminder, the kcat is the maximal rate divided by the concentration of active sites.

This is an account of results in patent US8957016B2, “Tumor activated prodrugs” (Genspera, Inc., priority 2006, dated 2015).

The target of test [1] is sarcoplasmic reticulum (SR) and endoplasmic reticulum (ER) Ca2+-ATPase (SERCA) pump. The conditions noted are these: read-out: apparent dissociation constant; cited from earlier work.
Another test concerns the target PSA (Homo sapiens, UniProt P07288). Nature of the test: Kinetic parameters of fluorescent (AMC) PSA peptide substrates, Lineweaver Burke plots. The settings on record: PSA 10 μg/ml, AMC-coupled peptide. It is filed as biochemical. The procedure:
These peptides were then incubated with PSA (10 μg/ml) and Michaelis Menton kinetic parameters determined using Lineweaver Burke plots, Table 3. In this study, Kcat/Km ratios were calculated in order to rank peptides. Newly synthesized peptides contained an acetyl protecting group (Ac) at the amino terminus, whereas the test peptide contained the protecting group morpholinylcarbonyl (Mu).

Like-named read-outs stand apart in the source and are kept apart here. *1 amine or outer side, *2 acyl side, *3 side chain or, on linkers, in order; H or OH if unused. Where a SMILES comes first, the peptide text is derived from it. [ ]: non-standard residue; d: D form. The star is where a group is joined. AMC = Cc1cc(=O)oc2cc(N*)ccc12; Morpholide = C1CN(*)CCO1; CO = O=C([*:1])[*:2] A value given as a limit tells only on which side of the number the result lay.

Sequence of PSA (P07288 25-261): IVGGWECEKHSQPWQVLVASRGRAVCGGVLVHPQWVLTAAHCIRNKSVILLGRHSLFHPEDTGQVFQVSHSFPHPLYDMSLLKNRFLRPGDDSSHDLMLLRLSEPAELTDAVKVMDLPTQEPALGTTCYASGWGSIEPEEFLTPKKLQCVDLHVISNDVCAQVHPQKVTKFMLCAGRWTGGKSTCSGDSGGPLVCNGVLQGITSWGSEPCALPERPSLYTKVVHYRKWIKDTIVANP

For `C/C=C(/C)C(=O)O[C@H]1C(C)=C2[C@H]([C@@H]1OC(=O)CCCCCCC)[C@@](C)(OC(C)=O)C[C@H](OC(=O)CCC)[C@@]1(O)[C@H]2OC(=O)[C@@]1(C)O` [Thapsigargin], the Kd in test [1] was at most 2.2 pM.
`CC(=O)NCC(=O)N[C@@H](CO)C(=O)N[C@@H](CO)C(=O)N[C@@H](CCCCN)C(=O)N[C@@H](Cc1ccc(O)cc1)C(=O)N[C@@H](CCC(N)=O)C(=O)Nc1ccc2c(C)cc(=O)oc2c1` [Ac-GSSKYQ-AMC] (Ac-GSSKYQ-{AMC}): on PSA, the Km is 500 µM and the kcat amounted to 0.113 s⁻¹.
For the molecule `Cc1cc(=O)oc2cc(NC(=O)[C@H](CCC(N)=O)NC(=O)[C@H](CC(C)C)NC(=O)[C@H](CCCCN)NC(=O)[C@H](CO)NC(=O)[C@H](CO)NC(=O)[C@H](Cc3c[nH]cn3)NC(=O)N3CCOCC3)ccc12` [Mu-HSSKLQ-AMC, reference compound] ({Morpholide-CO}-HSSKLQ-{AMC}), on PSA, the kcat amounted to 0.011 s⁻¹.
For `CC(=O)NCC(=O)N[C@H](CO)C(=O)N[C@@H](C)C(=O)N[C@@H](CCCCN)C(=O)N[C@@H](Cc1ccc(O)cc1)C(=O)N[C@@H](CCC(N)=O)C(=O)Nc1ccc2c(C)cc(=O)oc2c1` [Ac-GsAKYQ-AMC] (Ac-G[dS]AKYQ-{AMC}), at PSA, the Km came out at 653 µM and the kcat amounted to 0.143 s⁻¹.
As for `CC(=O)NCC(=O)N[C@@H](CO)C(=O)N[C@@H](CO)C(=O)N[C@@H](CCCCN)C(=O)N[C@@H](Cc1ccccc1)C(=O)N[C@@H](CCC(N)=O)C(=O)Nc1ccc2c(C)cc(=O)oc2c1` [Ac-GSSKFQ-AMC] (Ac-GSSKFQ-{AMC}), on PSA, the Km stood at 666 µM and the kcat came to 0.057 s⁻¹.
`CC(=O)NCC(=O)N[C@@H](CCCCN)C(=O)N[C@@H](CO)C(=O)N[C@@H](CCC(N)=O)C(=O)N[C@@H](Cc1ccc(O)cc1)C(=O)N[C@@H](CCC(N)=O)C(=O)Nc1ccc2c(C)cc(=O)oc2c1` [Ac-GKSQYQ-AMC] (Ac-GKSQYQ-{AMC}): on PSA, the kcat worked out at 0.09 s⁻¹. Besides, the Km at PSA (read-out: Km) turned out to be 343 µM.
